# Measurements taken from paper PMC3914206.
# Key:
# Assay type in all cases: binding
# panel of 442 kinases [1] = biological target: T1, panel of 442 kinases (Homo sapiens, UniProt Q96Q40); settings: Compound Concentration 10 µM
# T1 construct: purchased KINOMEscan
# Description: (§1) We assessed the selectivity of members of this scaffold using the KINOMEscan methodology across a near comprehensive panel of 442 kinases [[18,27]].
# panel of 442 kinases [2] = biological target: T2, panel of 442 kinases (Homo sapiens, UniProt Q9P286); settings: Compound Concentration 10 µM
# T2 construct: purchased KINOMEscan
# T2 sequence (Q9P286 whole entry): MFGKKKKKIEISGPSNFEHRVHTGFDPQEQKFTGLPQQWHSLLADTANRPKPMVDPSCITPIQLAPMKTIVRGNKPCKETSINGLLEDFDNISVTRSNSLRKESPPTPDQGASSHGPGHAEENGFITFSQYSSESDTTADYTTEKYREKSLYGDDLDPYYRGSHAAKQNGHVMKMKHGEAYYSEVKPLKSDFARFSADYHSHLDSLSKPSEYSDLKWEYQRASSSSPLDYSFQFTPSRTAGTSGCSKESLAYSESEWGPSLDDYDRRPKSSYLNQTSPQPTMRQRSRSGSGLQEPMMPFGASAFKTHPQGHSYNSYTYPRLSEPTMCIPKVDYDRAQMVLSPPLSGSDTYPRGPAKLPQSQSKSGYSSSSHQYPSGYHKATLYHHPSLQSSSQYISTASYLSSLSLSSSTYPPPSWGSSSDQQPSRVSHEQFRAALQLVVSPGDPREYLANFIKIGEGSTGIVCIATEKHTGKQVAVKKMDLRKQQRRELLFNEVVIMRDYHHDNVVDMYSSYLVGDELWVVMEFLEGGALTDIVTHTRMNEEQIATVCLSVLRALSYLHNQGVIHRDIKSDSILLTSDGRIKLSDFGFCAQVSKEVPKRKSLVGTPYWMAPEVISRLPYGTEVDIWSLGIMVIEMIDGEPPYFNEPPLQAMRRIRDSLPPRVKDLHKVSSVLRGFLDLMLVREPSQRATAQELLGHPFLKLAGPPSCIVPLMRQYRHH
# Description: as §1
# panel of 442 kinases [3] = biological target: T3, panel of 442 kinases (Homo sapiens, UniProt Q15569); settings: kinase TESK1; compound concentration 10 µM
# T3 construct: purchased KINOMEscan
# T3 sequence (Q15569 whole entry): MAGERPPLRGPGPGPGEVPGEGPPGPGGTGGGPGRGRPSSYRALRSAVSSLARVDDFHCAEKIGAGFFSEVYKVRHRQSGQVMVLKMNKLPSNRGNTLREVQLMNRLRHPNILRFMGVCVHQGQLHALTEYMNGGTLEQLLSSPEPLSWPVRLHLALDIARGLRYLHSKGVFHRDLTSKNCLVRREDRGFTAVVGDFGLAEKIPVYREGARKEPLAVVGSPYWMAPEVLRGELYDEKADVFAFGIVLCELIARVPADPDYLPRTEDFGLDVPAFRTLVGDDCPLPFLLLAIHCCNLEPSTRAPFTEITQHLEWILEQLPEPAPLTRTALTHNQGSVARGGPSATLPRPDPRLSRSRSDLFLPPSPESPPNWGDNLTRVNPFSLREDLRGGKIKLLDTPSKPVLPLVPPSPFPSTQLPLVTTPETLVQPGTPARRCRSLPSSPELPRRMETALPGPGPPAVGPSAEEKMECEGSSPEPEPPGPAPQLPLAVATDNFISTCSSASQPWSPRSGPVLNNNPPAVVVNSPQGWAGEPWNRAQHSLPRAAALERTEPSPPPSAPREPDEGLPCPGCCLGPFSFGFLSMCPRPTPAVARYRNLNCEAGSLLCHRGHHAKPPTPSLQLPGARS
# Description: as §1
# panel of 442 kinases [4] = biological target: T4, panel of 442 kinases (Homo sapiens, UniProt P54646); settings: Compound Concentration 10 µM
# T4 construct: purchased KINOMEscan
# T4 sequence (P54646 whole entry): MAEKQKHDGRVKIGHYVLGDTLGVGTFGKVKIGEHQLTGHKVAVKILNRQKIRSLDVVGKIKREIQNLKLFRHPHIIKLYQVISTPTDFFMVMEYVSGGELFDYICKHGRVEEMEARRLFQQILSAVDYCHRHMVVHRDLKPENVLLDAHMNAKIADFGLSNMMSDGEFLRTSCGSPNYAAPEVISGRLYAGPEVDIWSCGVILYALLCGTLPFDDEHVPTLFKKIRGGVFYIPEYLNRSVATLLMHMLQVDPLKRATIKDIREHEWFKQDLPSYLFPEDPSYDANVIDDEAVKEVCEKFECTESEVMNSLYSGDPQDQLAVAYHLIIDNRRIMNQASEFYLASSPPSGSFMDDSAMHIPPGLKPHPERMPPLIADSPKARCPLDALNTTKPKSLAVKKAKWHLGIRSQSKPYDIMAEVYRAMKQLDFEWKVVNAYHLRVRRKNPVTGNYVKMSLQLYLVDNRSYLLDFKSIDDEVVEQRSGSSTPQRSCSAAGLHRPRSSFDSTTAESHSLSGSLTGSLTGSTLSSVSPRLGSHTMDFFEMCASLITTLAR
# Description: as §1
# T1 sequence (Q96Q40 whole entry): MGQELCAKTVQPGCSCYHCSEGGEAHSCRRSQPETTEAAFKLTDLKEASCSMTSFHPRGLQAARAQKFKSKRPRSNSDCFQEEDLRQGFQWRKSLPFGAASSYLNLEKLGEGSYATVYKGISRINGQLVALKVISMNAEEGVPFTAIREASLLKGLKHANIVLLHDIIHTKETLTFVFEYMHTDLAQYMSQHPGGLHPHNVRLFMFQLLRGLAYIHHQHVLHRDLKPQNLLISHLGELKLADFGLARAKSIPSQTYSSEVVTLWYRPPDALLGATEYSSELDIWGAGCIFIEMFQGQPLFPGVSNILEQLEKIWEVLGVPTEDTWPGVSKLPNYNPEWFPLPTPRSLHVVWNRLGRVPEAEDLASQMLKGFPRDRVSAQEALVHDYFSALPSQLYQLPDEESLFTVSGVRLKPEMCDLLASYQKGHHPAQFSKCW
SMILES,KINOMEscan: PFTAIRE2 (panel of 442 kinases [1]),KINOMEscan: PAK7 (panel of 442 kinases [2]),"% Ctrl, TESK1 (panel of 442 kinases [3])",KINOMEscan: AMPK-alpha2 (panel of 442 kinases [4])
COc1cc(C(=O)N2CCC(N3CCN(C)CC3)CC2)ccc1Nc1ncc2c(n1)N(C)c1ccccc1C(=O)N2C [15 (LRRK2-IN-1)],100,96,82 % Ctrl,66
COc1cc(C(=O)N2CCC(N3CCN(C)CC3)CC2)ccc1Nc1ncc2c(n1)N1CCc3cccc(c31)C(=O)N2C [Compound 24],–,–,84 % Ctrl,–
"COc1cc(C(=O)N2CCC(N3CCN(C)CC3)CC2)ccc1Nc1ncc2c(n1)N(C1CCCC1)c1ccccc1C(=O)N2C [Compound 25, 11-cyclopentyl-2-((2-methoxy-4-(4-(4-methylpiperazin-1-yl)piperidine-1-carbonyl)phenyl)amino)-5-methyl-5H-benzo[e]pyrimido[5,4-b][1,4]diazepin-6(11H)-one]",99,100,100 % Ctrl,76
CCOc1cc(C(=O)N2CCC(N3CCN(C)CC3)CC2)ccc1Nc1ncc2c(n1)N(C1CCCC1)c1ccccc1C(=O)N2C [Compound 26],100,100,100 % Ctrl,100
